Results taken from PubChem BioAssay AID1845202 (Molecular Pharmacology Branch, DTP, NCI, 2023).

Test system: DMS 114 tumor spheroids, viability % test/control
Test: Anticancer human tumor DMS 114 cell line growth inhibition;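 note: spheroids exposed to compounds for 7 days before read-out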;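 for viability, T/C: luminescence used as a proxy for viable cells; 100% = DMSO vehicle control viability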
Conditions: spheroids with HUVEC and MSC; for IC50: curve of first compound; for viability, T/C: stronger effect = lower value
Source text: Multicellular complex tumor spheroid response to DNA repair inhibitors in combination with DNA-damaging drugs
This study explores the anticancer activities of DNA-damaging drugs and inhibitors of DNA damage repair, both as single agents and in combinations. Complex tumor spheroids comprised of malignant cells, endothelial cells and mesenchymal stem cells served as an in vitro model for human solid tumors. This model system incorporates physiologically relevant features and patient-derived or established malignant cell lines with clinically relevant genetic alterations from many tumor types. Twenty-six patient-derived or established malignant cell lines were evaluated representing sarcoma, melanoma, small cell lung cancer (SCLC), non-small cell lung cancer (NSCLC), as well as bladder, ovarian and pancreatic cancers. The concentration ranges selected for each drug and investigational agent were based upon clinically achievable concentrations if the clinical Cmax of the agent was known.
Compounds. The drugs and compounds olaparib (NSC753686), talazoparib (NSC767125), berzosertib (NSC777718), elimusertib (NSC800525), nedisertib (NSC802822), VX-984 (NSC792969), AZD-1390 (NSC803789), temozolomide (NSC362856), topotecan (NSC609699), trabectedin (NSC813783), staurosporine (NSC755774), and gemcitabine (NSC613327) were obtained from the National Cancer Institute (NCI) Developmental Therapeutics Program Chemical Repository. The FDA-approved anticancer drug set is available from the Developmental Therapeutics Program at https://dtp.cancer.gov/organization/dscb/obtaining/available_plates.htm. […] The stock solutions were prepared in dimethyl sulfoxide (DMSO, Sigma-Aldrich, St. Louis, MO, cat. D2650) at 400-fold the tested concentration and stored at -70 degrees C. Prior to their use, the stock solutions were diluted in fresh medium and the final DMSO concentration in the assay was 0.25% (v/v). All drugs and investigational agents were tested over a range starting from a high concentration at or near the clinical Cmax and decreasing in half-log increments. If the clinical Cmax for an agent had not been determined, the highest concentration tested was 10 microM.
Cell Lines. The patient-derived cancer cell (PDC) lines: 156681-154-R-J1-PDC, 283228-195-R-J1-PDC, 287954-098-R-J1-PDC, 292921-168-R-J2-PDC, 349418-098-R-PDC, 425362-245-T-J1-PDC, 556581-035-R-J1-PDC, and BL0293-F563-PDC were received from the NCI Patient-Derived Models Repository (PDMR, https://pdmr.cancer.gov). The established cell lines HS-SY-2 (RRID:CVCL_8719), MPNST, and SYO-1 (RRID:CVCL_7146) were obtained from the Sloan Kettering Institute. The alveolar soft parts sarcoma cell line ASPS-1 (RRID:CVCL_S738) was established at the NCI and grown from internal seed stocks. The following established cell lines were purchased from the American Type Culture Collection (ATCC, Manassas, VA): G-401 (ATCC, cat. CRL-1441, RRID:CVCL_0270), SW982 (ATCC, cat. HTB-93, RRID:CVCL_1734), VA-ES-BJ (ATCC, cat. CRL-2138, RRID:CVCL_1785), NCI-H719 (ATCC, cat. CRL-5837, RRID:CVCL_1582), NCI-H196 (ATCC, cat. CRL-5823, RRID:CVCL_1509), NCI-H841 (ATCC, cat. CRL-5845, RRID:CVCL_1595), NCI-H1618 (ATCC, cat. CRL-5879, RRID:CVCL_1480), NCI-H1876 (ATCC, cat. CRL-5902, RRID:CVCL_1503), DMS 114 (ATCC, cat. CRL-2066; RRID:CVCL_1174), NCI-H211 (ATCC, cat. CRL-5824; RRID:CVCL_1529), and SW 1271 (ATCC, cat. CRL-2177, RRID:CVCL_1716). The small cell lung cancer cell line COR-L88 was purchased from Sigma-Aldrich (cat. 92031917-1VL, RRID:CVCL_1141). The non-small cell lung cancer cell lines NCI-H226 (RRID:CVCL_1544) and NCI-H322M (RRID:CVCL_1557) were established at the NCI and grown from internal seed stocks. Pooled donor human umbilical vein endothelial cells (HUVEC, Lonza, cat. CC-2519) and human mesenchymal stem cells (hMSC, Lonza, cat. PT-2501) were purchased from Lonza (Walkersville, MD).
Cell Culture. All cells were maintained in an incubator at 37 degrees C and 5% CO2 with 95% humidity. […]

[1] = second compound 0.003 µM, first compound 0.00949 µM
[2] = second compound 0.003 µM, first compound 0.03 µM
[3] = second compound 0.003 µM, first compound 0.0949 µM
[4] = second compound 0.003 µM, first compound 0.3 µM
[5] = second compound 0.003 µM, first compound 0.949 µM
[6] = second compound 0.003 µM, first compound 3 µM
[7] = second compound 0.00949 µM, first compound 0.00949 µM
[8] = second compound 0.00949 µM, first compound 0.03 µM
[9] = second compound 0.00949 µM, first compound 0.0949 µM
[10] = second compound 0.00949 µM, first compound 0.3 µM
[11] = second compound 0.00949 µM, first compound 0.949 µM
[12] = second compound 0.00949 µM, first compound 3 µM
[13] = second compound 0.03 µM, first compound 0.00949 µM
[14] = second compound 0.03 µM, first compound 0.03 µM
[15] = second compound 0.03 µM, first compound 0.0949 µM
[16] = second compound 0.03 µM, first compound 0.3 µM
[17] = second compound 0.03 µM, first compound 0.949 µM
[18] = second compound 0.03 µM, first compound 3 µM
[19] = second compound 0.0949 µM, first compound 0.00949 µM
[20] = second compound 0.0949 µM, first compound 0.03 µM
[21] = second compound 0.0949 µM, first compound 0.0949 µM
[22] = second compound 0.0949 µM, first compound 0.3 µM
[23] = second compound 0.0949 µM, first compound 0.949 µM
[24] = second compound 0.0949 µM, first compound 3 µM
[25] = second compound 0.3 µM, first compound 0.00949 µM
[26] = second compound 0.3 µM, first compound 0.03 µM
[27] = second compound 0.3 µM, first compound 0.0949 µM
[28] = second compound 0.3 µM, first compound 0.3 µM
[29] = second compound 0.3 µM, first compound 0.949 µM
[30] = second compound 0.3 µM, first compound 3 µM

| Structure (SMILES) | IC50 (second compound 0.003 µM) [nM] | IC50 (second compound 0.00949 µM) [nM] | IC50 (second compound 0.03 µM) [nM] | IC50 (second compound 0.0949 µM) [nM] | IC50 (second compound 0.3 µM) [nM] | viability, T/C [3] [%] | viability, T/C [4] [%] | viability, T/C [5] [%] | viability, T/C [6] [%] | viability, T/C [9] [%] | viability, T/C [10] [%] | viability, T/C [11] [%] | viability, T/C [12] [%] | viability, T/C [15] [%] | viability, T/C [16] [%] | viability, T/C [17] [%] | viability, T/C [18] [%] | viability, T/C [21] [%] | viability, T/C [22] [%] | viability, T/C [23] [%] | other results |
| --- | --- | --- | --- | --- | --- | --- | --- | --- | --- | --- | --- | --- | --- | --- | --- | --- | --- | --- | --- | --- | --- |
| CNCc1ccc(-c2cc(-c3nc(-c4ccc(S(=O)(=O)C(C)C)cc4)cnc3N)on2)cc1 + CC[C@@]1(O)C(=O)OCc2c1cc1n(c2=O)Cc2cc3c(CN(C)C)c(O)ccc3nc2-1 | 60 | 25 | < 9.49 | < 9.49 | < 9.49 | 37.7 | 17.1 | 2.3 | 0.16 | 23.5 | 14.3 | 3.11 | 0.14 | 23.7 | 11.9 | 1.54 | 0.13 | 12.5 | 9.06 | 1.27 | viability, T/C [1]: 98.5%; viability, T/C [2]: 68.3%; viability, T/C [7]: 80.3%; viability, T/C [8]: 43%; viability, T/C [13]: 31.3%; viability, T/C [14]: 26.6%; viability, T/C [19]: 16.2%; viability, T/C [20]: 17%; viability, T/C [24]: 0.12%; viability, T/C [25]: 8.52%; viability, T/C [26]: 8.82%; viability, T/C [27]: 9.74%; viability, T/C [28]: 6.32%; viability, T/C [29]: 0.95%; viability, T/C [30]: 0.2% |
| Cn1ncnc1[C@H]1c2n[nH]c(=O)c3cc(F)cc(c23)N[C@@H]1c1ccc(F)cc1 + CC[C@@]1(O)C(=O)OCc2c1cc1n(c2=O)Cc2cc3c(CN(C)C)c(O)ccc3nc2-1 | 178 | < 9.49 | < 9.49 | < 9.49 | < 9.49 | 62 | 38.9 | 25.2 | 8.5 | 32.6 | 25.3 | 16.4 | 9.08 | 16.2 | 14 | 10 | 4.96 | 10.9 | 10.4 | 6.74 | viability, T/C [1]: 80.7%; viability, T/C [2]: 72.9%; viability, T/C [7]: 50.9%; viability, T/C [8]: 37.5%; viability, T/C [13]: 18.6%; viability, T/C [14]: 18.6%; viability, T/C [19]: 12.8%; viability, T/C [20]: 10.6%; viability, T/C [24]: 3.77%; viability, T/C [25]: 7.76%; viability, T/C [26]: 7.9%; viability, T/C [27]: 7.53%; viability, T/C [28]: 5.94%; viability, T/C [29]: 5.76%; viability, T/C [30]: 2.99% |
| O=C(c1cc(Cc2n[nH]c(=O)c3ccccc23)ccc1F)N1CCN(C(=O)C2CC2)CC1 + CC[C@@]1(O)C(=O)OCc2c1cc1n(c2=O)Cc2cc3c(CN(C)C)c(O)ccc3nc2-1 | 5040 | 1830 | < 94.9 | < 94.9 | < 94.9 | 104 | 98.3 | 96.9 | 68.6 | 69.3 | 64.6 | 64.9 | 39.1 | 24 | 21.4 | 22.6 | 17.8 | 12.9 | 13.9 | 13.4 | viability, T/C (second compound 0.003 µM, first compound 9.49 µM): 27.3%; viability, T/C (second compound 0.003 µM, first compound 30 µM): 19.7%; viability, T/C (second compound 0.00949 µM, first compound 9.49 µM): 23.8%; viability, T/C (second compound 0.00949 µM, first compound 30 µM): 18%; viability, T/C (second compound 0.03 µM, first compound 9.49 µM): 13.2%; viability, T/C (second compound 0.03 µM, first compound 30 µM): 12.6%; viability, T/C [24]: 11.2%; viability, T/C (second compound 0.0949 µM, first compound 9.49 µM): 9.09%; viability, T/C (second compound 0.0949 µM, first compound 30 µM): 9.45%; viability, T/C [27]: 8.39%; viability, T/C [28]: 8.45%; viability, T/C [29]: 9.03%; viability, T/C [30]: 6.88%; viability, T/C (second compound 0.3 µM, first compound 9.49 µM): 5.76%; viability, T/C (second compound 0.3 µM, first compound 30 µM): 6.93% |
